From patent publication US7812183B2, “Benzopyran derivatives as potassium channel openers” (Janssen Pharmaceutica NV, priority 2005, dated 2010)
pEC50: −log10 of the molar value.

Each compound was assayed against T1, KATP channels (Homo sapiens, UniProt O60706+Q14654) (assay: Potassium Channel Assay (FLIPR membrane potential, TE671 cells)). Conditions: TE671 human medulloblastoma cells, Membrane Potential Assay Dye, room temperature, hyperpolarization from KATP channel opening.
T1 construct: TE671 human medulloblastoma cells were obtained from ATCC; host or cells: TE671 human medulloblastoma cells
T1 sequence (O60706 1-1549 isoform O60706-2): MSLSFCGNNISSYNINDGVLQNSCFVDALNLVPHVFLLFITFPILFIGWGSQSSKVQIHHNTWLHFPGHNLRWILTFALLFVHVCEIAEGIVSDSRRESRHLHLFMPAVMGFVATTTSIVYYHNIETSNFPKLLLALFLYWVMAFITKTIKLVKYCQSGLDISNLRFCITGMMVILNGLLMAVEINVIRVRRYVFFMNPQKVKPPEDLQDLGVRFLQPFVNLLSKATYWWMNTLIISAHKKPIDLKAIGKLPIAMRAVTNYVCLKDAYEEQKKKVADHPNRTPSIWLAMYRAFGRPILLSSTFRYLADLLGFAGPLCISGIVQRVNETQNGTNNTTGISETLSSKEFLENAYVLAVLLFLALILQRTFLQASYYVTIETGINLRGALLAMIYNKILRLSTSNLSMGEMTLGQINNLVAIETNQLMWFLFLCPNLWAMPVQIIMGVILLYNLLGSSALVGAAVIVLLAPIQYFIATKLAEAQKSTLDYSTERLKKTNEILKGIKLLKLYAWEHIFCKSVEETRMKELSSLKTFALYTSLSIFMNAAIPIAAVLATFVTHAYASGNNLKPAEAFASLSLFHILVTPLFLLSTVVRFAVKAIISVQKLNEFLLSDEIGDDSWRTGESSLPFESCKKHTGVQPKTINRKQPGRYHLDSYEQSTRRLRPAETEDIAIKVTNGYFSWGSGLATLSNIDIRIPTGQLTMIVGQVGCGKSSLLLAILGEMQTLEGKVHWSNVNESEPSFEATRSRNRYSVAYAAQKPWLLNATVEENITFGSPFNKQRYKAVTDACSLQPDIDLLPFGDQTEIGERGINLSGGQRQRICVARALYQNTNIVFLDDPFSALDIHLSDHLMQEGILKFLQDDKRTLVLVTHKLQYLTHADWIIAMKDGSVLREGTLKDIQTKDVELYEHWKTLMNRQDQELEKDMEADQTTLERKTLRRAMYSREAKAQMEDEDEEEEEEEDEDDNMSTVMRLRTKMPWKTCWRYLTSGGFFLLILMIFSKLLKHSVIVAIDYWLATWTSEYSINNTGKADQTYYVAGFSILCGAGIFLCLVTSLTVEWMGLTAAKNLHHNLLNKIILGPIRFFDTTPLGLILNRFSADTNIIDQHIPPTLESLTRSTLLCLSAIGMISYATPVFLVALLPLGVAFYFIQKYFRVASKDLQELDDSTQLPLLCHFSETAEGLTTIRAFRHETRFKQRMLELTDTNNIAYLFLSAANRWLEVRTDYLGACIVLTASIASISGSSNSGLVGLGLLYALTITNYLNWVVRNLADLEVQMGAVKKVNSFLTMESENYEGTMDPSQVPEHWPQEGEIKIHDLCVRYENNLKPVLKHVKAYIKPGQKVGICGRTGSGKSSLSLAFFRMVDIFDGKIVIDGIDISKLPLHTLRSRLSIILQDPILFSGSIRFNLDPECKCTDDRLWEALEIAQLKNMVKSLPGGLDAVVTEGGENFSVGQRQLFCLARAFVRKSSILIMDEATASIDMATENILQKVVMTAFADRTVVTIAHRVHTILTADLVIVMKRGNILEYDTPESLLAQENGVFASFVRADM
T1 sequence (Q14654 whole entry): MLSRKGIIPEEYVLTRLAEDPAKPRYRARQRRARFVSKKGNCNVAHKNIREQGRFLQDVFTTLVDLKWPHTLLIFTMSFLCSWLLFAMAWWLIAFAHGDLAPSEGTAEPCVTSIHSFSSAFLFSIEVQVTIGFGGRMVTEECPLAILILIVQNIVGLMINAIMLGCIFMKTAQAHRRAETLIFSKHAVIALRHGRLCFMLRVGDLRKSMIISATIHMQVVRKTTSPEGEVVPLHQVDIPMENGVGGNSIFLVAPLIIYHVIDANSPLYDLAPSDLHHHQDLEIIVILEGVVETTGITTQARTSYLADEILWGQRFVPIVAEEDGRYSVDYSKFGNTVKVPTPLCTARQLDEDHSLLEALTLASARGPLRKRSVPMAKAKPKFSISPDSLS
Type: cell-based
Procedure, shortened: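 Human medulloblastoma cells plated day before at 50K/well, loaded 15–30 min with membrane potential dye in HEPES buffer (2 mM KCl, 2 mM CaCl2, 5 mM glucose) at room temperature. Compound-induced hyperpolarization (fluorescence decrease) monitored 3 min; 5 μM glyburide then added to confirm KATP opener specificity.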

Point of comparison: `CC1(C)Oc2ccc(S(=O)(=O)c3cccc(F)c3)cc2[C@@H](n2oc3cc(Cl)ccc3c2=O)[C@@H]1O` [Compound 100, 4R-6-Chloro-2-[6-(3-fluoro-benzenesulfonyl)-3S-hydroxy-2,2-dimethyl-chroman-4-yl]-R-benzo[d]isoxazol-3-one], pEC50 5.71. Against it:
- CC1(C)Oc2ccc(S(=O)(=O)c3ccccc3)cc2[C@@H](Nc2noc3ccc(Cl)cc23)[C@@H]1O [Compound 74, 6-Benzenesulfonyl-4R-(5-chloro-benzo[d]isoxazol-3-ylamino)-2,2-dimethyl-chroman-3S-ol] — within 0.2 log units, 5.86
- CC1(C)Oc2ccc(S(=O)(=O)c3ccccc3)cc2[C@@H](n2oc3ccc(Cl)cc3c2=O)[C@@H]1O [Compound 76, 2-(6-Benzenesulfonyl-3S-hydroxy-2,2-dimethyl-chroman-4-yl)-5-chloro-4R-benzo[d]isoxazol-3-one] — 0.69 log units higher, 6.40
- CC1(C)Oc2ccc(S(=O)(=O)c3ccccc3)cc2[C@@H](Oc2noc3cc(Cl)ccc23)[C@@H]1O [Compound 77, 6-Benzenesulfonyl-4R-(6-chloro-benzo[d]isoxazol-3-yloxy)-2,2-dimethyl-chroman-3S-ol] — lower, < 4.52
- CC1(C)Oc2ccc(S(=O)(=O)c3ccccc3)cc2[C@@H](n2oc3cc(Cl)ccc3c2=O)[C@@H]1O [Compound 78, 2-(6-Benzenesulfonyl-3S-hydroxy-2,2-dimethyl-chroman-4-yl)-6-chloro-4R-benzo[d]isoxazol-3-one] — 1.29 log units higher, 7.00
- CCN(CC)S(=O)(=O)c1ccc2c(c1)[C@@H](Oc1noc3cc(Cl)ccc13)[C@H](O)C(C)(C)O2 [Compound 79, 4R-(6-Chloro-benzo[d]isoxazol-3-yloxy)-3S-hydroxy-2,2-dimethyl-chroman-6-sulfonic acid diethylamide] — lower, < 4.52
- CCN(CC)S(=O)(=O)c1ccc2c(c1)[C@@H](Nc1noc3cc(Cl)ccc13)[C@H](O)C(C)(C)O2 [Compound 81, 4R-(6-Chloro-benzo[d]isoxazol-3-ylamino)-3S-hydroxy-2,2-dimethyl-chroman-6-sulfonic acid diethylamide] — 0.84 log units lower, 4.87
- CCN(CC)S(=O)(=O)c1ccc2c(c1)[C@@H](Nc1noc3c(Cl)cccc13)[C@H](O)C(C)(C)O2 [Compound 82, 4R-(7-Chloro-benzo[d]isoxazol-3-ylamino)-3S-hydroxy-2,2-dimethyl-chroman-6-sulfonic acid diethylamide] — 1.13 log units lower, 4.58
- CC1(C)Oc2ccc(S(=O)(=O)N3CCCCC3)cc2[C@@H](Oc2noc3cc(Cl)ccc23)[C@@H]1O [Compound 83, 4R-(6-Chloro-benzo[d]isoxazol-3-yloxy)-2,2-dimethyl-6-(piperidine-1-sulfonyl)-chroman-3S-ol] — lower, < 4.52
- CC1(C)Oc2ccc(S(=O)(=O)N3CCCCC3)cc2[C@@H](n2oc3cc(Cl)ccc3c2=O)[C@@H]1O [Compound 84, 6-Chloro-2-[3S-hydroxy-2,2-dimethyl-6-(piperidine-1-sulfonyl)-chroman-4-yl]-R-benzo[d]isoxazol-3-one] — 0.26 log units higher, 5.97
- CCN(CC)S(=O)(=O)c1ccc2c(c1)[C@@H](Oc1noc3ccc(Cl)cc13)[C@H](O)C(C)(C)O2 [Compound 85, 4R-(5-Chloro-benzo[d]isoxazol-3-yloxy)-3S-hydroxy-2,2-dimethyl-chroman-6-sulfonic acid diethylamide] — lower, < 4.52
- CCN(CC)S(=O)(=O)c1ccc2c(c1)[C@@H](n1oc3ccc(Cl)cc3c1=O)[C@H](O)C(C)(C)O2 [Compound 86, 4R-(5-Chloro-3-oxo-3H-benzo[d]isoxazol-2-yl)-3S-hydroxy-2,2-dimethyl-chroman-6-sulfonic acid diethylamide] — lower, < 4.52
- CC1(C)Oc2ccc(S(=O)(=O)c3ccccc3)cc2[C@@H](Nc2noc3c(Cl)cccc23)[C@@H]1O [Compound 87, (3S,4R)-6-Benzenesulfonyl-4R-(7-chloro-benzo[d]isoxazol-3-ylamino)-2,2-dimethyl-chroman-3S-ol] — lower, < 4.52
- CC1(C)Oc2ccc(S(=O)(=O)N3CCCCC3)cc2[C@@H](Nc2noc3ccc(Cl)cc23)[C@@H]1O [Compound 88, 4R-(5-Chloro-benzo[d]isoxazol-3-ylamino)-2,2-dimethyl-6-(piperidine-1-sulfonyl)-chroman-3S-ol] — lower, < 4.52
- CCN(CC)C(=O)c1ccc2c(c1)[C@@H](Nc1noc3ccc(Cl)cc13)[C@H](O)C(C)(C)O2 [Compound 89, 4R-(5-Chloro-benzo[d]isoxazol-3-ylamino)-3S-hydroxy-2,2-dimethyl-chroman-6-carboxylic acid diethylamide] — lower, < 4.52
- CCN(CC)C(=O)c1ccc2c(c1)[C@@H](Oc1noc3cc(Cl)ccc13)[C@H](O)C(C)(C)O2 [Compound 90, 4R-(6-Chloro-benzo[d]isoxazol-3-yloxy)-3S-hydroxy-2,2-dimethyl-chroman-6-carboxylic acid diethylamide] — lower, < 4.52
- CC1(C)Oc2cc(Cl)c(Cl)cc2[C@@H](Nc2noc3ccc(Cl)cc23)[C@@H]1O [Compound 91, 6,7-Dichloro-4R-(5-chloro-benzo[d]isoxazol-3-ylamino)-2,2-dimethyl-chroman-3S-ol] — 1.10 log units lower, 4.61
- CC1(C)Oc2ccc(C(=O)c3ccccc3)cc2[C@@H](Nc2noc3ccc(Cl)cc23)[C@@H]1O [Compound 92, [4R-(5-Chloro-benzo[d]isoxazol-3-ylamino)-3S-hydroxy-2,2-dimethyl-chroman-6-yl]-phenyl-methanone] — 1.02 log units lower, 4.69
- CC1(C)Oc2cc(Cl)c(Cl)cc2[C@@H](Oc2noc3cc(Cl)ccc23)[C@@H]1O [Compound 93, 6,7-Dichloro-4R-(6-chloro-benzo[d]isoxazol-3-yloxy)-2,2-dimethyl-chroman-3S-ol] — 1.02 log units lower, 4.69
- CC1(C)Oc2cc(Cl)c(Cl)cc2[C@@H](n2oc3cc(Cl)ccc3c2=O)[C@@H]1O [Compound 94, 6-Chloro-2-(6,7-dichloro-3S-hydroxy-2,2-dimethyl-chroman-4-yl)-R-benzo[d]isoxazol-3-one] — 0.72 log units lower, 4.99
- CC1(C)Oc2ccc(C(=O)c3ccccc3)cc2[C@@H](Oc2noc3cc(Cl)ccc23)[C@@H]1O [Compound 95] — 1.03 log units lower, 4.68
- CC1(C)Oc2ccc(C(=O)c3ccccc3)cc2[C@@H](n2oc3cc(Cl)ccc3c2=O)[C@@H]1O [Compound 96, 2-(6-Benzoyl-3S-hydroxy-2,2-dimethyl-chroman-4-yl)-6-chloro-4R-benzo[d]isoxazol-3-one] — 0.52 log units lower, 5.19
- COc1ccc(S(=O)(=O)c2ccc3c(c2)[C@@H](Oc2noc4cc(Cl)ccc24)[C@H](O)C(C)(C)O3)cc1 [Compound 97, 4R-(6-Chloro-benzo[d]isoxazol-3-yloxy)-6-(4-methoxy-benzenesulfonyl)-2,2-dimethyl-chroman-3S-ol] — lower, < 4.52
- COc1ccc(S(=O)(=O)c2ccc3c(c2)[C@@H](n2oc4cc(Cl)ccc4c2=O)[C@H](O)C(C)(C)O3)cc1 [Compound 98, 6-Chloro-2-[3S-hydroxy-6-(4-methoxy-benzenesulfonyl)-2,2-dimethyl-chroman-4-yl]-4R-benzo[d]isoxazol-3-one] — 0.58 log units lower, 5.13
- CC1(C)Oc2ccc(S(=O)(=O)c3cccc(F)c3)cc2[C@@H](Oc2noc3cc(Cl)ccc23)[C@@H]1O [Compound 99, 4R-(6-Chloro-benzo[d]isoxazol-3-yloxy)-6-(3-fluoro-benzenesulfonyl)-2,2-dimethyl-chroman-3S-ol] — 1.04 log units lower, 4.67
- CC1(C)Oc2ccc(S(=O)(=O)c3ccc(Cl)cc3)cc2[C@@H](Oc2noc3cc(Cl)ccc23)[C@@H]1O [Compound 101, 6-(4-Chloro-benzenesulfonyl)-4R-(6-chloro-benzo[d]isoxazol-3-yloxy)-2,2-dimethyl-chroman-3S-ol] — lower, < 4.52
- CC1(C)Oc2ccc(S(=O)(=O)c3ccc(Cl)cc3)cc2[C@@H](n2oc3cc(Cl)ccc3c2=O)[C@@H]1O [Compound 102, 6-Chloro-2-[6-(4-chloro-benzenesulfonyl)-3S-hydroxy-2,2-dimethyl-chroman-4-yl]-R-benzo[d]isoxazol-3-one] — 0.61 log units lower, 5.10
- CC1(C)Oc2ccc(S(=O)(=O)c3cccc(F)c3)cc2[C@@H](Nc2noc3ccc(Cl)cc23)[C@@H]1O [Compound 103, 4R-(5-Chloro-benzo[d]isoxazol-3-ylamino)-6-(3-fluoro-benzenesulfonyl)-2,2-dimethyl-chroman-3S-ol] — 0.60 log units lower, 5.11
- COc1ccc(S(=O)(=O)c2ccc3c(c2)[C@@H](Nc2noc4ccc(Cl)cc24)[C@H](O)C(C)(C)O3)cc1 [Compound 104, 4R-(5-Chloro-benzo[d]isoxazol-3-ylamino)-6-(4-methoxy-benzenesulfonyl)-2,2-dimethyl-chroman-3S-ol] — 1.12 log units lower, 4.59
- CC1(C)Oc2ccc(C#N)cc2[C@@H](N2C(=O)c3ccc(Cl)cc3C2=O)[C@@H]1O [Compound 115, 4-(5-Chloro-1,3-dioxo-1,3-dihydro-isoindol-2-yl)-3-hydroxy-2,2-dimethyl-chroman-6-carbonitrile] — 0.21 log units lower, 5.50
- CC1(C)Oc2ccc(C#N)cc2[C@@H](n2oc3cc(Cl)ccc3c2=O)[C@@H]1O [Compound 117, 4R-(6-Chloro-3-oxo-3H-benzo[d]isoxazol-2-yl)-3S-hydroxy-2,2-dimethyl-chroman-6-carbonitrile] — lower, < 4.52
- N#Cc1ccc2c(c1)[C@@H](Oc1noc3cc(Cl)ccc13)[C@H](O)C1(CCS(=O)(=O)CC1)O2 [Compound 200, (3S,4R)-4-(6-Chloro-benzo[d]isoxazol-3-yloxy)-2,2-(tetrahydro-4-sulfonylpyranyl)-3-hydroxy-chroman-6-carbonitrile] — 1.18 log units lower, 4.53
- N#Cc1ccc2c(c1)[C@@H](NC(=O)c1cccc(Cl)c1)[C@H](O)C1(CCS(=O)(=O)CC1)O2 [Compound 201, (3S,4R)-3-Chloro-N-[6-cyano-3-hydroxy-2,2-(tetrahydro-4-sulfonylpyranyl)-chroman-4-yl]-benzamide] — lower, < 4.52
- N#Cc1ccc2c(c1)[C@@H](NC(=O)c1cccc(Cl)c1)[C@H](OC(=O)c1cccc(Cl)c1)C1(CCS(=O)(=O)CC1)O2 [Compound 202, (3S,4R)-3-Chloro-benzoic acid 4-(3-chloro-benzoylamino)-6-cyano-2,2-(tetrahydro-4-sulfonylpyranyl)-chroman-3-yl ester] — lower, < 4.52
